Measured values as given in patent US20230012368A1 (Hoffmann-La Roche Inc., priority 2018, published 2023).
Structures can show the parent of a compound that is named as a salt. Where two headings read alike, the source gives them in different places.

System: Acinetobacter baumannii ATCC 17978
Test: Antimicrobial susceptibility testing: 90% growth inhibitory concentration (IC90) determination
Type: cell-based
Settings: 90% growth inhibitory concentration, Acinetobacter baumannii ATCC17978, Iso-Sensitest broth, OD 600 nm over 16h, read-out: ATCC17978 IC90
Method in brief: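 Compounds serially twofold diluted (e.g. 50 to 0.097 μM final) in Iso-Sensitest broth, inoculated at ~5×10^(5) CFU/ml, incubated at 35±2° C. OD600 read every 20 minutes over 16h. IC90 taken as concentration inhibiting 90% of growth during logarithmic phase.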

[1] = Acinetobacter baumannii, ATCC17978, 16 h

Compound	IC90 [1] [µM]	IC90 [µM]
Cc1cc(Nc2nccn3c(-c4ccc(OC(F)F)cc4)cnc23)ccc1C(=O)NCCN1CCNCC1 [Example 46]	0.49	–
COc1ccc(-c2cnc3c(Nc4ccc(C(=O)NCCC5CCN(C)CC5)c(C)c4)nccn23)cc1 [Example 48]	0.22	–
COc1ccc(-c2cnc3c(Nc4ccc(C(=O)N(C)CC5OCC(N)CO5)c(C)c4)nccn23)cc1 (stereo not drawn) [Example 153, N-((5-Amino-1,3-dioxan-2-yl)methyl)-4-((3-(4-methoxyphenyl)imidazo[1,2-a]pyrazin-8-yl)amino)-N,2-dimethylbenzamide]	0.53	–
CCc1cc(Nc2nccn3c(-c4ccc(Oc5ncccn5)c(F)c4F)cnc23)ccc1C(=O)NCCNC(=O)CCN [Example 431, N-[2-(3-aminopropanoylamino)ethyl]-4-[[3-(2,3-difluoro-4-pyrimidin-2-yloxy-phenyl)imidazo[1,2-a]pyrazin-8-yl]amino]-2-ethyl-benzamide; formic acid]	0.53	–
COc1ccc(-c2cnc3c(Nc4ccc(C(=O)NCC5CCNCC5)c(C)c4)nccn23)c(F)c1F [Example 55, 4-[[3-(2,3-difluoro-4-methoxy-phenyl)imidazo[1,2-a]pyrazin-8-yl]amino]-2-methyl-N-(4-piperidylmethyl) benzamide]	0.26	–
CCc1cc(Nc2nccn3c(-c4ccc(OC)c(F)c4F)cnc23)ccc1C(=O)NC/C=C/CN [Example 536, N-[(E)-4-aminobut-2-enyl]-4-[[3-(2,3-difluoro-4-methoxyphenyl)imidazo[1,2-a]pyrazin-8-yl]amino]-2-ethylbenzamide]	0.024	–
COc1ccc(-c2cnc3c(Nc4ccc(C(=O)NCCCCCCN)c(C)c4)nccn23)cc1 [Example 10, N-(6-aminohexyl)-4-((3-(4-methoxyphenyl)imidazo [1,2-a]pyrazin-8-yl)amino)-2-methylbenzamide hydrochloride]	0.11	–
CCc1cc(Nc2nccn3c(-c4ccc(OC)c(F)c4F)cnc23)ccc1C(=O)NC1(CNC(=O)[C@@H](N)CCCCN)CC1 [Example 484, N-[1-[[[(2S)-2,6-diaminohexanoyl]amino]meth-yl]cyclopropyl]-4-[[3-(2,3-difluoro-4-methoxy-phenyl)imidazo[1,2-a]pyrazin-8-yl]amino]-2-ethyl-benzamide]	0.28	–
COc1ccc(-c2cnc3c(Nc4ccc(C(=O)N(C)CCCN)c(C)c4)nccn23)cc1 [Example 34, N-(3-aminopropyl)-4-((3-(4-methoxyphenyl)imidazo [1,2-a]pyrazin-8-yl)amino)-N,2-dimethylbenzamide hydrochloride]	1.1	–
Cc1cc(Nc2nccn3c(-c4ccc(Cl)c(F)c4F)cnc23)ccc1C(=O)NCCCCN [Example 202, N-(4-aminobutyl)-4-[[3-(4-chloro-2,3 difluorophenyl)imidazo[1,2-a]pyrazin-8-yl]amino]-2-methylbenzamide; hydrochlo-ride]	0.46	–
COc1ccc(-c2cnc3c(Nc4ccc(C(=O)NCCN)c(C)c4)nccn23)cc1 [Example 31, N-(2-aminoethyl)-4-((3-(4-methoxyphenyl)imidazo [1,2-a]pyrazin-8-yl)amino)-2-methylbenzamide]	2.9	–
COc1ccc(-c2cnc3c(Nc4ccc(C(=O)N(C)CC(=O)N5CCC(CN(C)C)C5)c(C)c4)nccn23)cc1F (stereo not drawn) [Example 9, N-[2-[3-[(dimethylamino)methyl]pyrrolidin-1-yl]-2-oxo-ethyl]-4-[[3-(3-fluoro-4-methoxy-phenyl)imidazo[1,2-a]pyrazin-8-yl]amino]-N,2-dimethyl-benzamide]	0.84	–
CN(C)C(=O)c1ccc(Nc2nccn3c(-c4ccc(OC(F)F)cc4)cnc23)cc1CO [Example 259, 4-[[3-[4-(difluoromethoxy)phenyl]im-idazo[1,2-a]pyrazin-8-yl]amino]-2-(hydroxymethyl)-N,N-dimethylbenzamide]	4.1	–
COc1ccc(-c2cnc3c(Nc4ccc(C(=O)N[C@@H](C)CN)c(C)c4)nccn23)c(F)c1F [Example 508, #N!-[(2#S!)-1-aminopropan-2-yl]-4-[[3-(2,3-difluoro-4-methoxyphenyl)imidazo[1,2-a]pyrazin-8-yl]amino]-2-methylbenzamide;dihydrochlo-ride]	0.32	–
CCc1cc(Nc2nccn3c(-c4ccc(OC)c(F)c4F)cnc23)ccc1C(=O)N[C@H](C)CNC(=N)C(C)C [Example 502, 4-[[3-(2,3-difluoro-4-methoxyphenyl)imidazo[1,2-a]pyrazin-8-yl]amino]-2-ethyl-#N!-[(2#R!)-1-(2-methylpropanimidoylamino)propan-2-yl]benzamide]	0.15	–
CCc1cc(Nc2nccn3c(-c4ccc(Oc5nccc(OC)n5)c(F)c4F)cnc23)ccc1C(=O)N[C@@H](C)CN [Example 462, (S)-N-(1-aminopropan-2-yl)-4-((3-(2,3-difluoro-4-((4-methoxypyrimidin-2-yl)oxy)phenyl)imidazo[1,2-a]pyrazin-8-yl)amino)-2-ethylbenzamide]	0.52	–
CCc1cc(Nc2nccn3c(-c4ccc(Oc5nccc(C)n5)c(F)c4F)cnc23)ccc1C(=O)NCCNC(=O)[C@@H](N)CCNC(=N)N [Example 445, (S)-N-(2-(2-amino-4-guanidinobutanamido)ethyl)-4-((3-(2,3-difluoro-4-((4-methylpyrimidin-2-yl)oxy)phenyl)imidazo[1,2-a]pyrazin-8-yl)amino)-2-ethylbenzamide formiate 1:2]	0.38	–
CN(CCN1CCNCC1)C(=O)c1ccc(Nc2nccn3c(-c4ccc(OC(F)F)cc4)cnc23)cc1Cl [Example 203, 2-chloro-4-[[3-[4-(difluoromethoxy)phenyl]im-idazo[1,2-a]pyrazin-8-yl]amino]-N-methyl-N-(2-piperazin-1-ylethyl)benzamide; hydrochlo-ride]	0.46	–
COc1ccc(-c2cnc3c(Nc4ccc(C(=O)NCC5CCNCC5)c(C)c4)nccn23)cc1F [Example 213, 4-[[3-(3-fluoro-4-methoxyphenyl)imidazo[1,2-a]pyrazin-8-yl]amino]-2-methyl-N-(piperidin-4-ylmethyl)benzamide;hydrochlo-ride]	0.66	–
Cc1cc(Nc2nccn3c(-c4ccc(OC(F)F)cc4)cnc23)ccc1C(=O)NCCN1CCOCC1 [Example 230, 4-[[3-[4-(difluoromethoxy)phenyl]im-idazo[1,2-a]pyrazin-8-yl]amino]-2-methyl-N-(2-morpholin-4-ylethyl)benzamide]	1.2	–
CN(CCC1CCNCC1)C(=O)c1ccc(Nc2nccn3c(-c4ccc(OCC#N)c(F)c4F)cnc23)cc1Cl [Example 78, 2-chloro-4-[[3-[4-(cyanomethoxy)-2,3-difluoro-phenyl]imidazo[1,2-a]pyrazin-8-yl]amino]-N-methyl-N-[2-(4-piperidyl)ethyl] benzamide; 2,2,2-trifluoroacetic acid]	0.13	–
Cc1cc(Nc2nccn3c(-c4ccc(OC(F)F)cc4)cnc23)ccc1C(=O)NC(C)(C)CN1CCOCC1 [Example 222, 4-[[3-[4-(difluoromethoxy)phenyl]im-idazo[1,2-a]pyrazin-8-yl]amino]-2-methyl-N-(2-methyl-1-morpholin-4-ylpropan-2-yl)benzamide]	1.1	–
tert-butyl 3-[[[4-[[3- [4- (difluoromethoxy) phenyl]imidazo[1,2- a]pyrazin-8- yl]amino]-2-methyl- benzoyl]amino] methyl] pyrrolidine-1- carboxylate [Example 47]	–	1.7
CCc1cc(Nc2nccn3c(-c4ccc(OC)c(F)c4F)cnc23)ccc1C(=O)NCC(C)CNC(=O)[C@@H](N)CCCNC(=N)N (mixture of isomers) [Example 406, rac-N-(3-((R)-2-amino-5-guanidinopentanamido)-2-methylpropyl)-4-((3-(2,3-difluoro-4-methoxyphenyl)imidazo[1,2-a]pyrazin-8-yl)amino)-2-ethylbenzamide diformate]	–	0.24
CCc1cc(Nc2nccn3c(-c4ccc(Oc5ccc(OCCCN)cn5)c(F)c4F)cnc23)ccc1C(=O)N(C)C [Example 510, 4-[[3-[4-[[5-(3-aminopropoxy)-2-pyridyl]oxy]-2,3-difluoro-phenyl]imidazo[1,2-a]pyrazin-8-yl]amino]-2-ethyl-N,N-dimethyl-benzamide; formic acid]	0.86	–
CCc1cc(Nc2nccn3c(-c4ccc(OC)c(F)c4F)cnc23)ccc1C(=O)NCCCCCC(=O)N1CCN[C@H](CO)C1 [Example 162, 4-[[3-(2,3-difluoro-4-methoxy-phenyl)imidazo[1,2-a]pyrazin-8-yl]amino]-2-ethyl-N-[6-[(3S)-3-(hydroxymethyl)piperazin-1-yl]-6-oxo-hexyl]benzamide]	0.08	–
Cc1cc(Nc2nccn3c(-c4ccc(OC(F)F)cc4)cnc23)ccc1C(=O)NCCCCNC(=N)N [Example 83, 4-((3-(4-(difluoromethoxy)phenyl)imidazo[1,2-a]pyrazin-8-yl)amino)-N-(4-guanidinobutyl)-2-methylbenzamide]	0.25	–
CCc1cc(Nc2nccn3c(-c4ccc(OC(F)F)c(F)c4F)cnc23)ccc1C(=O)N[C@@H](C)CNC(=O)C1CCN(CC2CNC2)CC1 (racemic) [Example 553, rac-(R)-1-(azetidin-3-ylmethyl)-N-(2-(4-((3-(4-(difluoromethoxy)-2,3-difluorophenyl)imidazo[1,2-a]pyrazin-8-yl)amino)-2-ethylbenzamido)propyl)piper-idine-4-carboxamide formate]	0.26	–
CCc1cc(Nc2nccn3c(-c4ccc(OC)c(F)c4Cl)cnc23)ccc1C(=O)NCCCN [Example 389, N-(3-aminopropyl)-4-[[3-(2-chloro-3-fluoro-4-methoxyphenyl)imidazo[1,2-a]pyrazin-8-yl]amino]-2-ethylbenzamide; hydrochloride]	–	0.5
CCc1cc(Nc2nccn3c(-c4ccc(OC)c(F)c4F)cnc23)ccc1C(=O)NCCCCCCCCN [Example 540, N-(8-aminooctyl)-4-((3-(2,3-difluoro-4-methoxyphenyl)imidazo[1,2-a]pyrazin-8-yl)amino)-2-ethylbenzamide hydrochloride]	–	0.1
